# Counter-ions that a name gives are not always drawn.
# Columns and labels:
# [1] = system: α1-adrenergic receptor subtypes; test: Comparison of functional affinities across α1-adrenoceptor subtypes (rat tail artery, mouse spleen, rat aorta); type: biochemical; settings: from difference in pA2 values
# Experimental: The isolated artery, cut into ~4 mm long rings, was then horizontally put up between two stainless steel hooks (diameter 0.15 mm). One hook was fastened to the bottom of the chamber and the other to an isometric FDT10-A force displacement transducer (DMT Model 750TOBS, Denmark), linked with Powerlab 4/26 analyzer (ADInstruments), and processed by LabChart 7 software. […] The initial optimal tissues tension was set at 0.75 g. Chloroethylclonidine (3 μM) as the preferential α1B-adrenoreceptor alkylating agent was used during incubation and after 30 min it was completely washed off. Through 100 min of equilibration tissues were stimulated with noradrenaline (1 μM) four times with washing out until the contractile response become constant. Two cumulative concentration-response curves to noradrenaline, at an interval of 60 min, were established on each arterial ring both in the presence and absence of antagonist. The incubation with antagonists went on for 30 min. The experiments were carried out in the constant presence of yohimbine (0.1 μM) and propranolol (1 μM) to block α2- and β-adrenoceptors, respectively in order to minimize the involvement of these adrenoceptors in the response to noradrenaline.
# The influence on α1B-adrenoceptors was evaluated using the isolated mouse spleen. The spleen was removed from male mice right after killing the anesthetized animal by cervical dislocation. […]
# α1-adrenoceptor = settings: rat cerebral cortex, [3H]-prazosin; ref Pytka et al. (2015); read-out: Adrenergic receptors Ki α1; cited from earlier work
Structure (SMILES),α1A-adrenoceptor blockade relative to α1B subtype (fold stronger) [1],Ki (α1-adrenoceptor) [µM]
"COc1ccccc1N1CCN(CCCOc2cc(C)cc(C)c2C)CC1 [HBK-19, 1N-[3-(2,3,5-trimethylphenoxy)propyl]-4N-(2-methoxyphenyl)piperazine hydrochloride]",around seven-fold,
"COc1ccccc1N1CCN(CCOCCOc2c(C)cccc2C)CC1.Cl [HBK-14, 1-[(2,6-dimethylphenoxy)ethoxyethyl]-4-(2-methoxyphenyl)piperazine hydrochloride]",,0.0228
"COc1ccccc1N1CCN(CCOCCOc2c(C)cccc2Cl)CC1.Cl [HBK-15, 1-[(2-chloro-6-methylphenoxy)ethoxyethyl]-4-(2-methoxyphenyl)piperazine hydrochloride]",,0.0131

# Reference: publication PMC4971072, “Chemically Homogenous Compounds with Antagonistic Properties at All α1-Adrenoceptor Subtypes but not β1-Adrenoceptor Attenuate Adrenaline-Induced Arrhythmia in Rats” (Frontiers in Pharmacology, 2016)
